Experimental data: PubChem BioAssay AID2253 (Southern Research Specialized Biocontainment Screening …, 2010)

Test system: THP-1 viability, CellTiter-Glo luminescence, 72 h
Experiment: THP-1 cell cytotoxicity, dose response, cytotoxicity control for Salmonella PhoP regulon inhibitors, S. typhimurium screen hits (AID 2253)

| SMILES | EC50 [µM] |
| --- | --- |
| O=C(NCCNc1ccc([N+](=O)[O-])cc1C(F)(F)F)c1ccc(F)cc1 | 43.7 |
| O=C1C(=O)c2ccccc2-c2ccccc21 | 8.03 |
| Cc1ccccc1Nc1cc(C)c2c(O)cccc2n1 | 7.56 |
| COc1cccc(/C=N/n2c(C)nc3ccccc3c2=O)c1O | 27.7 |
| c1ccc2cc(CSCc3nc4ccccc4[nH]3)ccc2c1 | 42.6 |
| CCCOc1ccc(Br)cc1CSC(=N)N | 5.31 |
| CC(=O)c1ccc(NC(=O)Nc2cccc(Cl)c2)cc1 | 20.1 |
| Cc1cc(C)n(-c2nc(NCCN(C)C)c3c4c(sc3n2)CCCC4)n1 | 4.63 |
| O=C(Nc1cccc(Cl)c1)C1C2CCC3C(CCC21)C3(Cl)Cl (stereo not drawn) | 27.2 |
| Cc1cccc(NC(=S)NC(NC(=O)c2ccco2)C(Cl)(Cl)Cl)c1 (stereo not drawn) | 21.7 |
| Cc1ccc(Nc2nc(NCc3ccco3)c3ccccc3n2)cc1 | 4.34 |
| Oc1cc(Cl)ccc1Oc1ccc(Cl)cc1Cl | 33.9 |
| O=C(Nc1ccc2snnc2c1)Nc1cccc2ccccc12 | 33.7 |
| CCOc1ccc(Nc2c3ccccc3nc3ccccc23)cc1 | 1.24 |
| C/C(=N\Nc1ncnc2sc(C)c(C)c12)c1ccccn1 | < 0.1 |
| O=S1(=O)N=C(N/N=C/c2ccccn2)c2ccccc21 | 22.9 |
| Cc1ccc(C(C)C)c(OCC(=O)N2CCN(Cc3nc4cc([N+](=O)[O-])ccc4n3C)CC2)c1 | 25.9 |
| O=C(N/N=C/C1C(c2ccccc2)C1(Cl)Cl)c1cccc(Cl)c1 (stereo not drawn) | 44 |
| c1ccc(Nc2cc(Nc3ccccc3)[nH]n2)cc1 | 23.7 |
| Oc1cccc(/C=N/Nc2ccc(Cl)nn2)c1O | 0.66 |

| SMILES | EC50 [µM] |
| --- | --- |
| Cc1ccc(C(=O)O)cc1N=Cc1cc(Br)cc(Br)c1O | 37.2 |
| O=C(CN1CCCC1)N/N=C/c1c(O)ccc2ccccc12 | 3.43 |
| Cc1ccccc1OCCSCc1nc2ccccc2[nH]1 | 30.4 |
| CC(C)COc1ccc(Cc2cnc(N)nc2N)cc1 | 36.9 |
| CCCCCCCCCCCCCCCCn1cc[n+](CC(C)=O)c1 | 0.8 |
| OC1(c2cccc(C(F)(F)F)c2)CCN(c2ncnc3c2[nH]c2ccccc23)CC1 | 17.6 |
| COc1ccc(/C=C2\CN(Cc3ccccc3)C/C(=C\c3ccc(OC)cc3)C2=O)cc1 | 12.7 |
| CC1CCC(C(C)C)C(OC(=O)Cn2c(-c3ccc(Cl)cc3)[n+](C)c3ccccc32)C1 (stereo not drawn) | 2.13 |
| CCCCCCOC(=O)C[N+](C)(C)CCOC1CC2CCC1(C)C2(C)C (stereo not drawn) | 2.8 |
| C#CCOCCOCCOCCNc1nc(N2CCN(C(=O)CCCCCCCCCCNC(=O)[C@H]([C@@H](C)CC)n3cc(CCCCN=C(N)N)nn3)CC2)nc(N2CCN(C(=O)CCCCCCCCCCNC(=O)[C@H](CCCN=C(N)N)n3cc(C[C@@H](C)CC)nn3)CC2)n1 | 3.57 |
| Oc1ccc(N=Cc2ccc(O)c(O)c2)cc1 | 7.64 |
| O=C1c2ccccc2NC(c2ccc(-c3ccc(Br)cc3)o2)N1O (stereo not drawn) | 7.16 |
| Nc1cc2nsnc2cc1Br | 7.44 |
| CCCCCCCCCCCCCCCCn1cc[n+](C)c1 | 0.37 |
| CC(NCc1ccc(Cl)c(Cl)c1)C(O)c1ccccc1 (stereo not drawn) | 40 |
| COc1ccc(-c2csc(NCc3ccco3)n2)cc1 | 38.5 |
| O=C(C[n+]1cc(-c2ccc(Cl)c(Cl)c2)n2c1CCC2)N1c2ccccc2Sc2ccccc21 | 17.8 |
| CSc1ccc(C(=O)/C=C/c2ccc(N)cc2)cc1 | 21.7 |
| NC(N)=N/N=C/c1ccc(OCc2ccc(Cl)cc2)cc1 | 2.91 |
| CC1OC(Nc2cccc3ccccc23)C(O)C(O)C1O (stereo not drawn) | 12 |

| SMILES | EC50 [µM] |
| --- | --- |
| Cc1ccc(Nc2nc(N)c3ccccc3n2)cc1Cl | 16.3 |
| Cc1cc(C(=O)N/N=C/c2cc(Br)cc(Br)c2OC(=O)c2ccccc2)n[nH]1 | 7.53 |
| Cc1ccc(-c2cc(C(=O)Nc3nccs3)c3ccccc3n2)o1 | 31.7 |
| Clc1ccc(CN2CCC(c3nc4ccc(Cl)cc4[nH]3)CC2)cc1 | 29.4 |
| Cc1cccc(NC(=O)Cn2c(/C=C/c3ccccc3)nc3ccccc32)c1 | 45 |
| O=C(Nc1ccc(Cl)c(Cl)c1)Nc1ccccc1O | 21.1 |
| N/C(=N/OC(=O)c1ccccc1Cl)c1ncc([N+](=O)[O-])s1 | 18.8 |
| Oc1c(CN2CCCCC2)cc(COCc2ccccc2)c2cccnc12 | 6 |
| Oc1c(C(Nc2cccc(C(F)(F)F)c2)c2cccnc2)ccc2cccnc12 (stereo not drawn) | 7.65 |
| Cc1cc(C)cc(CC(Cc2nc3ccccc3[nH]2)c2nc3ccccc3[nH]2)c1 (stereo not drawn) | 11.8 |
| COc1ccc(-n2c(CNc3ccc(C)cc3)nnc2SCc2ccccc2)cc1 | 33.3 |
| COc1ccccc1CNCC(O)Cn1c2ccccc2c2ccccc21 (stereo not drawn) | 8.21 |
| CNc1nc(-c2ccccn2)nnc1-c1ccccc1 | 8.38 |
| CCn1c(SCC(=O)Nc2ccc3c(c2)oc2ccccc23)nnc1-c1ccc(N)cc1 | 29.9 |
| CC1N(C)c2cc(NC(=O)c3ccco3)ccc2C1(C)C (stereo not drawn) | 7.51 |
| COc1cccc2[nH]c3c(N4CCN(Cc5ccc6c(c5)OCO6)CC4)ncnc3c12 | 47.9 |
| CCOc1ccc2c(c1)nc(SCC(=O)c1ccc(Br)s1)n2C | 47.3 |
| NNC(=O)c1cc2ccccc2cc1O | 11.9 |
